From patent US9717752B2, “Uses of antagonists of hyaluronan signaling” (The United States of America, as represented by the …, priority 2012, dated 2017)
“Also recorded” adds a separate entry of the source.

Legend:
[1] = tested on: human airway smooth muscle cells (ASMC); assay: Gel contraction: human airway smooth muscle cells in 3-dimensional collagen-hyaluronan gels; format: cell-based
Protocol: The in vitro effect of heparosan on human airway smooth muscle cells (ASMC) was tested in 3-dimensional, collagen-hyaluronan gels. Collagen-only gels were used as controls. Human ASMC (6×10^5 cells/ml) in basal media were seeded into the gel solution and incubated up to 36 hours at 37° C. in 5% CO2. Gels were scanned at varying time intervals to monitor gel contraction. After 24 hours, the gels were fixed with 4% paraformaldehyde and stained with phalloidin and DAPI. In some experiments, the ROCK inhibitor Y-27632 was added to the gel. Change in gel area was measured by NIH Image J software.

mice exposed to sHA = assay: In vivo model of airway contraction (AHR) after sHA instillation, airway resistance to methacholine; settings: 50 μl of 1-2 mg/ml by oropharyngeal aspiration, methacholine challenge 2 hours after sHA, compared to sHA with saline
Protocol: (§1) Measurements of respiratory mechanics were made by the forced oscillation technique. Response to aerosolized methacholine (0, 10 mg/ml, 25 mg/ml, and 100 mg/ml) was determined by resistance measurements every 30 seconds for 5 minutes, ensuring the parameters calculated had peaked. The resistance measurements were then averaged at each dose and graphed (RT, measured in cm H2O/ml/s) along with the initial baseline measurement.
(§2) In the following studies to evaluate the effect of heparosan, mice were exposed to one of several agents: sHA (50 μl of a 1 mg/ml sHA solution in PBS—sonicated Healon, AMO Inc., Santa Ana, Calif.); 1 ppm ozone (O3) for 4 hours; or inhaled OVA (sensitization with i.p. injection of 10 μg OVA (Sigma, St. Louis, Mo.), adsorbed to 2 mg of alum adjuvant (Pierce Biotechnology, Inc., Rockford, Ill.) diluted in saline on days 0 and 7, 60 minutes inhaled exposure to 1% OVA aerosol on days 14 and 15). Mice were phenotyped for AHR at typical time points for each of these exposures: 2 hours after sHA instillation; 24 hours after ozone exposure; and 48 hours after second OVA exposure. Thirty minutes prior to phenotyping, mice received appropriate treatment (saline, heparosan or heparin) by oropharyngeal aspiration. Mice received 50 μl of a 1-2 mg/ml solution of heparosan or heparin (or 50 μl of saline as a control). […]

[2] = tested on: mice sensitized to ovalbumin and exposed to inhaled ovalbumin; assay: Murine model of airway contraction in allergic asthma (ovalbumin), airway resistance; format: in vivo; settings: given 48 hours after OVA exposure, 50 μl of 1-2 mg/ml by oropharyngeal aspiration, compared to saline placebo
Protocol: as §1, §2

mice exposed to ozone = assay: Murine model of airway contraction after ozone exposure, airway resistance; format: in vivo; settings: 1 ppm ozone for 4 hours, given 24 hours after exposure, 50 μl of 1-2 mg/ml by oropharyngeal aspiration, compared to saline placebo
Protocol: as §1, §2

mouse tracheal rings = assay: Tracheal ring assay, in vitro model of mouse airway smooth muscle cell contractility; format: cell-based; settings: for effect on sHA-exaggerated contractile response of tracheal rings to carbachol: 1 mg/mL sHA+0.5 mg/mL oHA
Protocol: Airway smooth muscle reactivity was assessed in temperature-controlled (37° C.) organ baths containing Krebs-Henseleit buffer solution of the following composition: 118 mM NaCl, 4.7 mM KCl, 2.5 mM CaCl2, 1.2 mM MgSO4, 25 mM NaHCO3, 1.2 mM KH2PO4, and 11.1 mM glucose, continuously bubbled with 5% CO2 and 95% O2. Tracheal segments were mounted in organ baths between two metal hooks and connected to a K30 force displacement transducer under approximately 5-mN resting tension. Isometric contractile responses were recorded after dosing with carbachol (a bronchial constrictor) and isoproterenol (a bronchial dilator).

[3] = tested on: mice exposed to inhaled endotoxin (LPS); assay: Murine model of inflammatory asthma (inhaled endotoxin/LPS), airway resistance; format: in vivo; settings: for airway resistance after inhaled endotoxin (LPS) exposure: LPS+oHA, 50 μl of 1.5 mg/ml oHA by oropharyngeal aspiration after exposure
Protocol: as §1
In the following studies to evaluate the effect of oHA, mice were exposed to sHA (50 μl of a 1 mg/ml sHA solution in PBS—sonicated Healon, AMO Inc., Santa Ana, Calif.) or inhaled endotoxin (5 μg/m^3) over 2.5 hours. Mice were phenotyped for AHR at typical time points for each of these exposures: 2 hours after sHA instillation; or 4 hours after endotoxin exposure. Thirty minutes prior to phenotyping, mice received appropriate treatment (saline, vehicle or oHA) by oropharyngeal aspiration. Mice were treated with 50 μl of 1.5 mg/ml oHA. Phenotyping was with invasive airway pressure measurements (FlexiVent™).

Substance	effect on sHA-induced contraction of gel containing human ASMC ([1]; collagen-hyaluronan gel, change in gel area)	airway resistance after sHA exposure (mice exposed to sHA)	airway resistance in ovalbumin allergic asthma model [2]	airway resistance after ozone exposure (mice exposed to ozone)	effect on sHA-exaggerated contractile response of tracheal rings to carbachol (mouse tracheal rings)	airway resistance after inhaled endotoxin (LPS) exposure [3]	airway contractility without LPS exposure ([3]; saline+oHA (oHA alone))	contraction of gel containing human ASMC ([1]; sHA alone, versus collagen-only control gels)	contractile response of tracheal rings to carbachol (mouse tracheal rings; 1 mg/mL sHA versus 0 mg/mL sHA)
heparosan	inhibited this action, and was indistinguishable from control cells	decreased the development of airway resistance	led to decreased airway resistance compared to saline placebo treatment	led to decreased airway resistance compared to saline placebo treatment	ameliorates tracheal ring contractility	inhibits inflammatory AHR			
hyaluronan oligosaccharide [oHA]					inhibited this action	led to decreased airway resistance	had no effect on airway contractility		
short fragment hyaluronan [sHA, reference compound]								led to rapid contraction of a gel containing human ASMC; also recorded: led to rapid contraction of a gel containing haSMC	led to an exaggerated contractile response of mouse tracheal rings to the constrictor substance carbachol
heparin [reference compound]		increased the development of airway resistance	increased the development of airway resistance	had no effect on airway resistance beyond saline					
